Data reported in patent publication US20230218706A1 (9 Meters Biopharma, Inc., priority 2020, published 2023).
“Also recorded” adds a separate entry of the source. Where a SMILES comes first, the peptide text is derived from it. Where no end group is shown, it is not given here. [ ]: non-standard residue; d: D form.

What was measured:
[1] = test system: pig ischemic jejunum tissue; assay: Ex vivo assessment of peptide stability (degradation by brush border enzymes) in pig ischemic jejunum tissue; conditions: for peptide concentration, T = 0 mins after addition / peptide concentration, T = 30 mins after addition / peptide concentration, T = 120 mins after addition: 1 μm addition of each peptide to pig ischemic jejunum tissue
Text: (§1) After 45-minutes of ischemia, the pigs were euthanized, and intestinal segments were collected. Non-ischemic control tissue was also collected at this time. Following tissue collection, the seromuscular layer was stripped from the mucosa while the tissue was bathed in oxygenated (95% 02, 5% CO2) Ringer's solution (in mmol/L: 154 Na^+, 6.3 K^+, 137 Cl^−, and 24 HCO3−; pH 7.4). The mucosa was subsequently mounted in 1.1-cm^2 aperture Ussing chambers, as described in previous studies, which are herein incorporated by reference in their entireties, Moeser, A. J.; Nighot, P. K.; Ryan, K. A.; Wooten, J. G.; Blikslager, A. T. Prostaglandin-mediated inhibition of Na+/H+ exchanger isoform 2 stimulates recovery of barrier function in ischemia-injured intestine. Am J Physiol Gastrointest Liver Physiol (2006), 291, G885-94; and Jin, Y.; Blikslager, A. T. Myosin light chain kinase mediates intestinal barrier dysfunction via occludin endocytosis during anoxia/reoxygenation injury. Am J Physiol Cell Physiol (2016), 311, C996-C1004. Tissues were bathed on both the mucosal and serosal sides with 10 mL Ringer's solution. The mucosal bathing solution contained 10 mM mannitol while the serosal side was osmotically balanced with 10 mM glucose. Bathing solutions were oxygenated (95% O2, 5% CO2) and circulated in water-jacketed reservoirs. The spontaneous potential difference (PD) was measured using Ringer-agar bridges connected to calomel electrodes, and the PD was short-circuited through Ag—AgCl electrodes using a voltage clamp that was corrected for fluid resistance. TER (Ω·cm^2) was calculated from the spontaneous PD and short-circuit current (Isc). If the spontaneous PD was between −1.0 and 1.0 mV, tissues were current clamped at ±100 μA for 5-seconds, and the PD was recorded. Isc and PD were recorded at 15-minute intervals over a 4-hour experiment. After tissues were mounted on Ussing chambers, all tissues were allowed to acclimate for a period of 30-minutes to establish stable baseline measurements, after which experimental treatments of larazotide or larazotide analogs was added to the apical chamber. Tissues were monitored by measuring transepithelial resistance (TER) for 240 min. Samples of Ringers solution were collected at select timepoints and quenched with 5% trifluoroacetic acid (TFA) solution (in 80% acetonitrile (ACN): 20% DI water). Quenched samples were centrifuged at 13000×g for 5-minutes and the resulting supernatants were stored at −80° C. for future MS analysis.
The recovery effects of Analogs #5 and 6 were also compared in an ex vivo test for recovery of ischemic-injured pig jejunum tissue. […] Analogs #5 and 6 were further compared for peptide stability—Analog #5 (D-Val), Analog #6 (All D) and larazotide concentrations were measured at TO, 30, and 120 minutes after 1 μm addition of each to pig ischemic jejunum tissue.
A set of experiments was conducted in order to compare the all-D amino acid larazotide analog (Analog #6) with larazotide in terms of degradation profiles, recovery effects, and dose response profiles.

[2] = test system: ischemic-injured porcine jejunum; assay: Ex vivo recovery of transepithelial electrical resistance (TEER/TER) of ischemic-injured porcine jejunum in Ussing chambers; assay type: cell-based, pig; conditions: for effect of excess fragment on action of Analog #6: 10 μM fragment applied 30 mins before 0.1 μM Analog #6 (100 fold excess), FIGS. 8-10; for activity as tight junction regulators: fragment alone; for effect of fragment on larazotide activity: fragment mixed with full-length larazotide (10 μM fragment + 1 μM larazotide, FIG. 7); for induction of recovery of ischemic-injured tissue: FIG. 2
Text: In order to evaluate the activity profile of larazotide and larozotide analogs, an ex vivo assay was employed measuring transepithelial electrical resistance (TEER) of ischemic-injured porcine jejunum.
Several larazotide analogs were initially tested in an ex vivo model, measuring the recovery of an ischemic-injured pig jejunum tissue.
Six-to-eight-week-old Yorkshire crossbred pigs of either sex were individually housed and maintained on a commercially pelleted feed. Pigs were held off feed for 12 hours prior to experimental surgery. General anesthesia was induced with xylazine (1.5 mg/kg IM), ketamine (11 mg/kg IM), followed by mask delivery of isoflurane vaporized in 100% 02. Pigs were subsequently orotracheally intubated, followed by continued delivery of isoflurane in 100% 02 to maintain a surgical plane of anesthesia. An intravenous catheter was placed in an ear vein for delivery of fluids during surgery (lactated Ringer solution, 15 m1·kg^−1h^−1, IV). The distal jejunum was approached via a ventral midline incision. Jejunal segments were delineated by ligating the intestine at 8-10 cm intervals with 2-0 silk, and were subjected to segmental ischemia by ligating the local mesenteric blood supply with 2-0 silk for 45-minutes.
as §1, with “chamber.” for “chamber. Tissues were monitored by measuring transepithelial resistance (TER) for 240 min. Samples of Ringers solution were collected at select timepoints and quenched with 5% trifluoroacetic acid (TFA) solution (in 80% acetonitrile (ACN): 20% DI water). Quenched samples were centrifuged at 13000×g for 5-minutes and the resulting supernatants were stored at −80° C. for future MS analysis.”

[3] = test system: BLM-induced pulmonary fibrosis model mice
[4] = test system: Celiac disease symptoms; conditions: cited from earlier work

CC(C)C[C@H](NC(=O)[C@H](NC(=O)CNC(=O)CN)C(C)C)C(=O)N[C@H](C(=O)N[C@@H](CCC(N)=O)C(=O)N1CCC[C@H]1C(=O)NCC(=O)O)C(C)C [Analog #5, H2N-GG(dV)LVQPG-OH] (H-GG[dV]LVQPG-OH)
peptide concentration, T = 0 mins after addition [1]: 0.510 µg/mL | peptide concentration, T = 30 mins after addition [1]: 0.012 µg/mL | peptide concentration, T = 120 mins after addition [1]: 0.005 µg/mL

CC(C)C[C@@H](NC(=O)[C@H](NC(=O)CNC(=O)CN)C(C)C)C(=O)N[C@@H](C(=O)N[C@H](CCC(N)=O)C(=O)N1CCC[C@@H]1C(=O)NCC(=O)O)C(C)C [Analog #6, H2N-GG(dV)(dL)(dV)(dQ)(dP)G-OH] (H-GG[dV][dL][dV][dQ][dP]G-OH)
dose response of repair of injured intestine (TER) ([2]; 0.01 μM, 0.1 μM, 1 μM and 10 μM, FIG. 6): did not exhibit the distinct bell-shaped dose-response of larazotide | recovery of TER ([2]; 0.1 μM, FIG. 6): induced good recovery of TER | recovery of ischemic-injured intestine (transepithelial electrical resistance) ([2]; 1 μM, recovery period of 240 minutes, FIG. 5): induces recovery to substantially the same extent as larazotide | recovery effect on ischemic-injured pig jejunum tissue ([2]; FIG. 3, Analog #6 compared with Analog #5): pronounced recovery effect as compared to Analog #5 | peptide concentration, T = 0 mins after addition [1]: 0.517 ug/ml ug/mL | peptide concentration, T = 30 mins after addition [1]: 0.436 µg/mL | peptide concentration, T = 120 mins after addition [1]: 0.086 µg/mL | resistance to brush border enzyme degradation ([1]; jejunum epithelial brush border enzymes, in words (Table 2, FIG. 4)): significant resistance to brush border enzyme degradation as compared to larazotide and Analog #5; also recorded: significantly more resistant to degradation than larazotide | lung fibrosis, Ashcroft grading of Masson's Trichrome-stained right lung sections ([3]; 1 mg/kg orally once daily Day 0 to 20, sacrifice Day 21, FIG. 18): less fibrosis than either the vehicle or larazotide samples | therapeutic effect in mouse model of pulmonary fibrosis ([3]; provided orally): better therapeutic effect than larazotide

(d)Val-(d)Leu-(d)Val-(d)Gln-(d)Pro-Gly [Analog A6F2]
effect of excess fragment on action of Analog #6 [2]: does not appear to be meaningfully blocked

GVLVQPG [Fragment 1, reference compound]
activity as tight junction regulators [2]: inactive as tight junction regulators | effect of fragment on larazotide activity [2]: inhibit larazotide activity; also recorded: activity is completely abolished

Gly-(d)Val-(d)Leu-(d)Val-(d)Gln-(d)Pro-Gly [Analog A6F1]
effect of excess fragment on action of Analog #6 [2]: less significant impact on the action of the all-D amino acid larazotide analog

H2N-(dV)GGVLVQPG-OH (H-[dV]GGVLVQPG-OH; SMILES CC(C)C[C@H](NC(=O)[C@@H](NC(=O)CNC(=O)CNC(=O)[C@H](N)C(C)C)C(C)C)C(=O)N[C@H](C(=O)N[C@@H](CCC(N)=O)C(=O)N1CCC[C@H]1C(=O)NCC(=O)O)C(C)C) [Analog #2]
induction of recovery of ischemic-injured tissue [2]: no significant induction of recovery

H2N-GGV(dL)VQPG-OH (H-GGV[dL]VQPG-OH) [Analog #1]
induction of recovery of ischemic-injured tissue [2]: no significant induction of recovery

H2N-VGGVLVQPG-OH (H-VGGVLVQPG-OH) [Analog #3]
induction of recovery of ischemic-injured tissue [2]: no significant induction of recovery

H-GGVLVQPG-OH [Larazotide, reference compound]
dose-response of repair of ischemic-injured intestine (TEER) ([2]; FIG. 1, low, middle and high dose range): “bell-shaped” dose-dependent manner | peptide concentration, T = 0 mins after addition [1]: 0.508 µg/mL | peptide concentration, T = 30 mins after addition [1]: 0.212 µg/mL | peptide concentration, T = 120 mins after addition [1]: 0.007 µg/mL | activity at higher doses in clinical trials ([4]; higher doses (e.g., 1 mg and 2 mg doses)): attenuation of activity, or no activity at all | reduction of Celiac disease symptoms ([4]; lower doses (e.g., 0.5 mg dose)): significant benefit at reducing Celiac disease symptoms

VLVQPG [Fragment 2, reference compound]
activity as tight junction regulators [2]: inactive as tight junction regulators | effect of fragment on larazotide activity [2]: inhibit larazotide activity; also recorded: activity is completely abolished
